Source: patent publication EP4596536A1 (Shanghai de Novo Pharmatech Co., Ltd., priority 2022, dated 2024)
Values belong to the compound of their own block, whether it stands above or below them.

Molecular target: T1, TLR8 (Homo sapiens, UniProt Q9NR97)
T1 construct: host or cells: HEK293 (HEK-BLUE-hTLR8)
T1 sequence (Q9NR97 27-1041): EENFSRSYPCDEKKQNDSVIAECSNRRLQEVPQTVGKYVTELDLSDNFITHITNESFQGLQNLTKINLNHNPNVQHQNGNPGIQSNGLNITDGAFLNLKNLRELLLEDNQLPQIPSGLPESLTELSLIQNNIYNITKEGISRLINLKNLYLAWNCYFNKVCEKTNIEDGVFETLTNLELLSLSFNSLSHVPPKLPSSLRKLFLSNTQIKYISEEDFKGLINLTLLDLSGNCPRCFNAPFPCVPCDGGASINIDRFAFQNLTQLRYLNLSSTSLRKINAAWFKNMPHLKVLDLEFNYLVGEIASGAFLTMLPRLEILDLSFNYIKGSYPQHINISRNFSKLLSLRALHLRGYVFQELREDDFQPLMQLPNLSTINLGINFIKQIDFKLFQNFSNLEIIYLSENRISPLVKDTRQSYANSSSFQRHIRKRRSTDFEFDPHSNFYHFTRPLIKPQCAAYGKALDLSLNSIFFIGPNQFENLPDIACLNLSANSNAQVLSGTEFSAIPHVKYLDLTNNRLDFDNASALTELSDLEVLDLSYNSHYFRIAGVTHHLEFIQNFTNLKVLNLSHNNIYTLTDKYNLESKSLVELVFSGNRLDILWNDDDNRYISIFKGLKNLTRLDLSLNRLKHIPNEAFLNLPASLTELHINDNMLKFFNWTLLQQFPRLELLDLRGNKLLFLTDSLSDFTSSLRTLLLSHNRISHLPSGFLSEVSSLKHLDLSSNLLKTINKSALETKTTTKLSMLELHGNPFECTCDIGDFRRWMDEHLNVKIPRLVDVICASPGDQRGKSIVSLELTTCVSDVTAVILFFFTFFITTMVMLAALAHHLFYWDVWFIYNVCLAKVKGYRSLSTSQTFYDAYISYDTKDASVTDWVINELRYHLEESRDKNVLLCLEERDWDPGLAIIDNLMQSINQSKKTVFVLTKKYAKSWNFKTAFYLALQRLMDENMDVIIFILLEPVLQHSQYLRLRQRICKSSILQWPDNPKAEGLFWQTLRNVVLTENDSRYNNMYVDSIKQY
Test: HEK-BLUE-hTLR8 cell SEAP reporter assay (Quanti-Blue)
Format: cell-based
Details: HEK-BLUE-hTLR8 cells, 0.5 nM to 15 µM, 24 hours
Experimental: In this experiment, the biological activity of TLR7 and TLR8 in the compound of formula I was detected using cell tests. This method was conducted in human embryonic kidney cells (HEK293) expressing TLR family members such as TLR4, TLR7, TLR8 or TLR9. TLR agonists activate TLRs, triggering the activation of downstream NF-kB, which in turn activates the secreted embryonic alkaline phosphatase (SEAP) reporter gene. The activity of SEAP was detected using the Quanti-Blue (InvivoGen) reagent, thereby reflecting the activities of TLR7 and TLR8 agonists.
The detailed experimental method was as follows: HEK-BLUE-hTLR7 and HEK-BLUE-hTLR8 cell lines were purchased from Invivogen Company and cultured in DMEM medium containing 4.5 g/L glucose (Sigma-Aldrich) and 10% fetal bovine serum under the conditions of temperature 37°C, humidity 95% and 5% CO2.
The compound was tested at a concentration ranging from 0.5 nM to 15 µM over a total of 10 concentration gradients. TLR7 or TLR8 agonists with known activity were added as positive controls, and 1 µL of DMSO was added as a negative control.
The cells were treated as follows: the cells were removed from the culture dish and centrifuged to remove the medium, and resuspended in a T-150 bottle with 10 mL of preheated PBS, 12 mL of preheated medium was added, and the cells were gently pipetted up and down and counted under a microscope. A 200,000/mL single-cell suspension was immediately prepared with medium and added to a 96-well plate at 200 µL/well (40,000/well). The final concentration of DMSO was 0.5%.
The compound was added and incubated in an incubator at 37°C, 5% CO2 for 24 hours.
A supernatant at 20 µL/well was aspirated into 180 µL of preheated Quanti-Blue at 37°C, incubated at 37°C for 1.5 hours, and detected for the absorbance (OD value) with a spectrophotometer at 650 nm. The formula for calculating the agonistic effect is as follows:
Effect % = (average OD value of the drug-administered group - average OD value of the DMSO group) / (average OD value of the positive drug group - average OD value of the DMSO group) × 100
Graphpad software was used to fit the concentration-effect curve, and EC50 was calculated. The test results are shown in Table 15 (A denotes < 250 nM, B denotes 250 nM-1 µM, C denotes 1 µM-2 µM, D denotes > 2 µM, and - denotes not listed or not tested): Table 15

Structure (SMILES): CCCN(CCO)C(=O)C1=Cc2ccc(C3(C(=O)Nc4cnc5c(c4)CN(C(=O)CNC(=O)[C@H](Cc4ccccc4)NC(=O)CNC(=O)CNC(=O)CCCCCN4C(=O)C=CC4=O)CC5)CC3)cc2N=C(N)C1
- EC50: 250 to 1000 nM

Structure (SMILES): CCCN(CCOP(=O)(N[C@@H](C)C(=O)OCc1ccccc1)Oc1ccccc1)C(=O)C1=Cc2ccc(C3(C(=O)Nc4cnc5c(c4)CNCC5)CC3)cc2N=C(N)C1 (single isomer, unassigned) [Compound 25-1]
- EC50: < 250 nM

Structure (SMILES): CCCN(CCO)C(=O)C1=Cc2c(F)cc(C3(C(=O)Nc4cncc(CN)c4)CC3)cc2N=C(N)C1 [Compound 12, 2-amino-8-(1-((5-(aminomethyl)pyridin-3-yl)carbamoyl)cyclopropyl)-6-fluoro-N-(2-hydroxyethyl)-N-propyl-3H-benzo[b]azepine-4-formamide]
- EC50: < 250 nM

Structure (SMILES): CCCN(CCC)C(=O)C1=Cc2c(F)cc(C3(C(=O)Nc4cncc(CN)c4)CC3)cc2N=C(N)C1 [Compound 13, 2-amino-8-(1-((5-(aminomethyl)pyridin-3-yl)carbamoyl)cyclopropyl)-6-fluoro-N,N-dipropyl-3H-benzo[b]azepine-4-formamide]
- EC50: < 250 nM

Structure (SMILES): CCCN(CCC)C(=O)C1=Cc2ccc(C3(C(=O)Nc4ccc5c(c4)CNCC5)CC3)cc2N=C(N)C1 [Compound 15, 2-amino-N,N-dipropyl-8-(1-((1,2,3,4-tetrahydroisoquinolin-7-yl)carbamoyl)cyclopropyl)-3H-benzo[b]azepine-4-formamide]
- EC50: < 250 nM

Structure (SMILES): CCCN(CCC)C(=O)C1=Cc2ccc(C3(C(=O)Nc4cncc(CN)c4)CC3)cc2N=C(N)C1 [Compound 16]
- EC50: < 250 nM

Structure (SMILES): CCCN(CCO)C(=O)C1=Cc2ccc(C3(C(=O)NCc4ccc(N)cc4)CC3)cc2N=C(N)C1 [Compound 17, 2-amino-8-(1-((4-aminobenzyl)carbamoyl)cyclopropyl)-N-(2-hydroxyethyl)-N-propyl-3H-benzo[b]azepine-4-formamide]
- EC50: < 250 nM

Structure (SMILES): CCCN(CCO)C(=O)C1=Cc2ccc(C3(C(=O)NCc4cccc(N)c4)CC3)cc2N=C(N)C1 [Compound 18, 2-amino-8-(1-((3-aminobenzyl)carbamoyl)cyclopropyl)-N-(2-hydroxyethyl)-N-propyl-3H-benzo[b]azepine-4-formamide]
- EC50: < 250 nM

Structure (SMILES): CCCN(CCO)C(=O)C1=Cc2ccc(C3(C(=O)Nc4cccc(N)c4)CC3)cc2N=C(N)C1 [Compound 19, 2-amino-8-(1-((3-aminophenyl)carbamoyl)cyclopropyl)-N-(2-hydroxyethyl)-N-propyl-3H-benzo[b]azepine-4-formamide]
- EC50: < 250 nM

Structure (SMILES): CCCN(CCO)C(=O)C1=Cc2ccc(C3(C(=O)Nc4cncc(N)c4)CC3)cc2N=C(N)C1 [Compound 20, 2-amino-8-(1-((5-aminopyridin-3-yl)carbamoyl)cyclopropyl)-N-(2-hydroxyethyl)-N-propyl-3H-benzo[b]azepine-4-formamide]
- EC50: 250 to 1000 nM

Structure (SMILES): CCCN(CCO)C(=O)C1=Cc2ccc(C3(C(=O)NCc4cncc(N)c4)CC3)cc2N=C(N)C1 [Compound 22, 2-amino-8-(1-(((5-aminopyridin-3-yl)methyl)carbamoyl)cyclopropyl)-N-(2-hydroxyethyl)-N-propyl-3H-benzo[b]azepine-4-formamide]
- EC50: 250 to 1000 nM

Structure (SMILES): CCCN(OCC)C(=O)C1=Cc2ccc(C3(C(=O)Nc4cnc5c(c4)CNCC5)CC3)cc2N=C(N)C1 [Compound 23, 2-amino-N-ethoxy-N-propyl-8-(1-((5,6,7,8-tetrahydro-1,6-naphthyridin-3-yl)carbamoyl)cyclopropyl)-3H-benzo[b]azepine-4-formamide]
- EC50: < 250 nM

Structure (SMILES): CCCN(CCO)C(=O)C1=Cc2ccc(C3(C(=O)Nc4cnc5c(c4)CN(C(=O)[C@H](CCCNC(N)=O)NC(=O)[C@@H](N)C(C)C)CC5)CC3)cc2N=C(N)C1 [Example 33, 2-amino-8-(1-((6-((S)-2-((S)-2-amino-3-methylbutanoylamino)-5-ureidopentanoyl)-5,6,7,8-tetrahydro-1,6-naphthyridin-3-yl)carbamoyl)cyclopropyl)-N-(2-hydroxyethyl)-N-propyl-3H-benzo[b]azepine-4-formamide]
- EC50: < 250 nM

Structure (SMILES): CCCN(CCO)C(=O)C1=Cc2ccc(C3(C(=O)Nc4cnc5c(c4)CN(C(=O)CCOCCOCCOCCOCCOCCOCCNC(=O)CCN4C(=O)C=CC4=O)CC5)CC3)cc2N=C(N)C1 [II-12, 2-amino-8-(1-((6-(1-(2,5-dioxo-2,5-dihydro-1H-pyrrol-1-yl)-3-oxo-7,10,13,16,19,22-hexaoxa-4-azapentacosan-25-acyl)-5,6,7,8-tetrahydro-1,6-naphthyridin-3-yl)carbamoyl)cyclopropyl)-N-(2-hydroxyethyl)-N-propyl-3H-benzo[b]azepine-4-formamide]
- EC50: 250 to 1000 nM

Structure (SMILES): CCCN(CCO)C(=O)C1=Cc2ccc(C3(C(=O)Nc4cnc5c(c4)CN(C(=O)CCOCCOCCOCCOCCOCCOCCNC(=O)[C@H](CCCNC(N)=O)NC(=O)[C@@H](NC(=O)CCCCCN4C(=O)C=CC4=O)C(C)C)CC5)CC3)cc2N=C(N)C1 [II-18, 2-amino-8-(1-((6-((24S,27S)-34-(2,5-dioxo-2,5-dihydro-1H-pyrrol-1-yl)-27-isopropyl-23,26,29-trioxo-24-(3-ureidopropyl)-4,7,10,13,16,19-hexaoxa-22,25,28-triazatetratriacontanacyl)-5,6,7,8-tetrahydro-1,6-naphthyridin-3-yl)carbamoyl)cyclopropyl)-N-(2-hydroxyethyl)-N-propyl-3H-benzo[b]azepine-4-formamide]
- EC50: 250 to 1000 nM

Second part, the compound after the results:

- EC50: 250 to 1000 nM
Structure (SMILES): CCCN(CCO)C(=O)C1=Cc2ccc(C3(C(=O)Nc4cnc5c(c4)CN(C(=O)C4COC(CN6C(=O)C=CC6=O)OC4)CC5)CC3)cc2N=C(N)C1 (single isomer, unassigned) [II-77, 2-amino-8-(1-((6-(2-((2,5-dioxo-2,5-dihydro-1H-pyrrol-1-yl)methyl)-1,3-dioxan-5-carbonyl)-5,6,7,8-tetrahydro-1,6-naphthyridin-3-yl)carbamoyl)cyclopropyl)-N-(2-hydroxyethyl)-N-propyl-3H-benzo[b]azepine-4-formamide]

- EC50: 250 to 1000 nM
Structure (SMILES): CCCN(CCO)C(=O)C1=Cc2ccc(C3(C(=O)Nc4cnc5c(c4)CN(C(=O)CCOCCOCCNC(=O)CCN4C(=O)C=CC4=O)CC5)CC3)cc2N=C(N)C1 [II-7, 2-amino-8-(1-((6-(3-(2-(2-(3-(2,5-dioxo-2,5-dihydro-1H-pyrrol-1-yl)propionylamino)ethoxy)ethoxy)propionyl)-5,6,7,8-tetrahydro-1,6-naphthyridin-3-yl)carbamoyl)cyclopropyl)-N-(2-hydroxyethyl)-N-propyl-3H-benzo[b]azepine-4-formamide]

- EC50: 250 to 1000 nM
Structure (SMILES): CCCN(CCO)C(=O)C1=Cc2ccc(C3(C(=O)Nc4cnc5c(c4)CN(C(=O)CCOCCOCCNC(=O)[C@H](CCCNC(N)=O)NC(=O)[C@@H](NC(=O)CCCCCN4C(=O)C=CC4=O)C(C)C)CC5)CC3)cc2N=C(N)C1 [II-17, 2-amino-8-(1-((6-((12S,15S)-22-(2,5-dioxo-2,5-dihydro-1H-pyrrol-1-yl)-15-isopropyl-11,14,17-trioxo-12-(3-ureidopropyl)-4,7-dioxa-10,13,16-triazabehenoyl)-5,6,7,8-tetrahydro-1,6-naphthyridin-3-yl)carbamoyl)cyclopropyl)-N-(2-hydroxyethyl)-N-propyl-3H-benzo[b]azepine-4-formamide]
